Earlier results, collected in patent publication US10028963B2, “Methods for treating intrapulmonary infections” (priority 2011, dated 2018).

Details: patients treated for nosocomial pneumonia

CN(C)c1cc(NC(=O)CNC(C)(C)C)c(O)c2c1C[C@H]1C[C@H]3[C@H](N(C)C)C(=O)C(C(N)=O)=C(O)[C@@]3(O)C(=O)C1=C2O [tigicycline]
Mortality risk compared to other drugs: increased mortality risk
